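Values below derive from 48-hour exposures of cells grown in 96-well plates, with endpoints linearly interpolated between the two concentrations bracketing the appropriate inhibition level. The concentration for 50% growth inhibition is given as GI50. Definition used: TGI = concentration required for complete inhibition of growth.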
Columns and labels:
Assay in all cases: inhibition of tumour cell growth, NCI panel, 48 h
IGROV1 ovarian = test system: IGROV1 ovarian
UO-31 renal = test system: UO-31 renal
K-562 leukemia = test system: K-562 leukemia
SF-539 CNS = test system: SF-539 CNS
786-0 renal = test system: 786-0 renal
SK-MEL-2 melanoma = test system: SK-MEL-2 melanoma
M14 melanoma = test system: M14 melanoma
HCT-116 colon = test system: HCT-116 colon
PC-3 prostate = test system: PC-3 prostate
MCF7 breast = test system: MCF7 breast

| Structure (SMILES) | TGI (IGROV1 ovarian) [µM] | TGI (UO-31 renal) [µM] | TGI (K-562 leukemia) [µM] | TGI (SF-539 CNS) [µM] | TGI (786-0 renal) [µM] | TGI (SK-MEL-2 melanoma) [µM] | TGI (M14 melanoma) [µM] | TGI (HCT-116 colon) [µM] | GI50 (IGROV1 ovarian) [µM] | GI50 (UO-31 renal) [µM] | GI50 (K-562 leukemia) [µM] | GI50 (PC-3 prostate) [µM] | TGI (PC-3 prostate) [µM] | GI50 (SF-539 CNS) [µM] | GI50 (786-0 renal) [µM] | GI50 (SK-MEL-2 melanoma) [µM] | GI50 (M14 melanoma) [µM] | GI50 (HCT-116 colon) [µM] | TGI (MCF7 breast) [µM] |
| --- | --- | --- | --- | --- | --- | --- | --- | --- | --- | --- | --- | --- | --- | --- | --- | --- | --- | --- | --- |
| COc1cc(-c2cc(=O)c3cc(C)c(C)c(C(=O)O)c3o2)cc(OC)c1OC | > 100 | > 100 | > 100 | > 100 | > 100 | > 100 | > 100 | > 100 |  |  |  |  |  |  |  |  |  |  |  |
| O=C(OCc1ccc2c(Cl)cc(Cl)c(O)c2n1)c1cc2ccccc2[nH]1 | 0.5 | 0.331 | 10.2 | 1.48 | 0.833 | 3.25 | 0.898 | 0.372 | 0.219 | 0.164 | 0.336 | 0.407 | 0.936 | 0.587 | 0.275 | 1.47 | 0.279 | 0.174 |  |
| CCc1nc(Cl)nc(Cl)c1Cl | 13.7 | 0.674 | 3.62 | 9.65 | 6.42 |  | 5.29 | 4.62 |  |  |  |  | 6.25 |  |  |  |  |  | 5.56 |
| CCCCCCCCCCCCN(O)C(=O)c1ccccc1 | > 100 | > 100 | > 100 | 63.6 | 49.2 | > 100 | 82.2 | > 100 |  |  |  |  |  |  |  |  |  |  |  |
| O=C1C2c3[nH]c4ccccc4c3[C@@H]3CCCCC3C2C(=O)N1c1ccccc1 (stereo not given in full) | 74.8 | 45 | > 100 |  | 37.5 |  | 30 |  |  |  |  |  |  |  |  |  |  |  |  |
| Cc1ccc2[nH]c3c(ncc4[nH]c5ccccc5c43)c2c1 | 29.6 | 30.3 | 30.2 | 30.7 | 31.5 | 33.6 | 35.8 | 30.8 |  |  |  |  |  |  |  |  |  |  |  |
| CCC(C(=O)[O-])C(=O)[O-].CCC(C(=O)[O-])C(=O)[O-].N.N.NCCCCCCN.[Pt+4].[Pt+4] | 18.7 | 13.6 | 10.3 | 21.7 | 14.5 | 16.9 | 13.1 | 14 | 8.13 | 7.06 | 1.79 |  |  | 10.4 | 7.74 | 8.4 | 6.68 | 5.59 |  |
| CC1=C(c2cc(C(=O)Nc3cccc(C(F)(F)F)c3)ncn2)Sc2ccccc2N1 | > 100 | > 100 | > 100 | > 100 | > 100 | > 100 | > 100 | > 100 |  |  |  |  |  |  |  |  |  |  |  |
| O=C(NNC(=O)c1cc(/C=C/c2cccc([N+](=O)[O-])c2)[nH]c(=S)n1)Nc1ccc(Cl)cc1 | > 100 | > 100 | > 100 |  | > 100 | > 100 | > 100 | 60.9 |  |  |  |  |  |  |  |  |  |  |  |
| COC12CC(=O)C(C(C)=O)=C(O)C1(C)c1c(OC(C)=O)c(C)c(O)c(C(C)=O)c1O2 (stereo not given) | > 100 | 33 | > 100 | > 100 | > 100 | 53.6 | > 100 | > 100 |  |  |  |  |  |  |  |  |  |  |  |
| O=C(CC(=O)C1CCOC1=O)C(=O)Nc1ccc(Cl)cc1Cl (stereo not given) | > 100 | > 100 | > 100 | > 100 | > 100 | > 100 | > 100 | > 100 |  |  |  |  |  |  |  |  |  |  |  |
| C=C1C(=O)O[C@H]2[C@H]1CC/C(COC(=O)c1ccc(C#N)cc1)=C\CC[C@@]1(C)O[C@@H]21 | 4.27 | 3.34 | 13 | 3.28 | 3.99 | 4.54 | 3.64 | 2.77 | 1.38 | 1.57 | 1.94 | 3.97 | 15.6 | 1.64 | 1.92 | 1.98 | 1.69 | 1.42 |  |
| O=C([O-])c1ccc(C(=O)[O-])cc1.O=C([O-])c1ccc(C(=O)[O-])cc1.[Mo+2].[Mo+2] | > 100 | > 100 | > 100 | > 100 | > 100 | > 100 | > 100 | > 100 | > 100 | > 100 | > 100 |  |  | > 100 | > 100 | > 100 | > 100 | > 100 |  |
| N#CC1(C=O)c2ccccc2C=CN1C(=O)c1ccccc1 (stereo not given) | > 100 | > 100 | 91.6 |  | > 100 | > 100 | 92.4 | > 100 |  |  |  |  |  |  |  |  |  |  |  |
| CCOC(=O)NC(=O)c1cn(CCN2CCN(C(=O)CCCCCCCCCCNc3ncnc4nc[nH]c34)CC2)c(=O)[nH]c1=O | > 100 | > 100 | > 100 | > 100 | > 100 | > 100 | > 100 | > 100 |  |  |  |  |  |  |  |  |  |  |  |
| CN(C)c1n/c(=N/c2ncn[nH]2)ss1 | > 100 | > 100 | > 100 | > 100 | > 100 | > 100 | > 100 | > 100 |  |  |  |  |  |  |  |  |  |  |  |

Source: PubChem BioAssay (NCI)
